From patent publication US20160317474A1, “Managing Visual Dysfunction or Loss of Vision for Diabetic Subjects” (priority 2013, published 2016) come the findings set out here.

Entries after “also recorded” stand apart in the source; their conditions may differ.

One data set has as its system STZ-induced DM WT mice. Kind of data set: Optokinetic tracking (OKT) visual function with chronic L-DOPA treatment in STZ-induced diabetic (DM) and CTRL WT mice. The following applies: for reduction in spatial frequency threshold: DM WT+L-DOPA group vs CTRL. Type of data set: in vivo. From the text: (§1) To examine whether DA deficiency causes visual deficits in early DR, the effects of restoring DA levels with L-DOPA on visual function of DM mice was investigated. […] Moreover, the severity of visual deficits progressed over time. The deficit in spatial frequency threshold of DM WT+Veh group (compared with CTRL WT+Veh group) worsened from 7.0% at 3 weeks after STZ to 12.3% at 6 weeks after STZ, whereas the reduction in contrast sensitivity deteriorated from 12.8% at 3 weeks after STZ to 43.6% at 6 weeks after STZ. […] The reduction in spatial frequency threshold of DM WT+L-DOPA group progressed from 2.4% at 3 weeks after STZ to 7.2% at 6 weeks after STZ, whereas the deficit in contrast sensitivity was only significant at 6 weeks after STZ, with an 18.0% reduction from CTRL animals. […] Furthermore, behavioral side effects such as dyskinesia with our current dosage of L-DOPA (10 mg/kg daily) in either CTRL or DM mice was not observed. A dosage was selected that was lower than the typical dosage used to induce dyskinesia (25 mg/kg) yet could still increase retinal DA levels.

The nature of data set [1]: Behavioral side effects (dyskinesia) under L-DOPA. The settings on record: L-DOPA 10 mg/kg daily, CTRL or DM mice. The class given is in vivo.
Excerpt: as §1

In another data set the test system is DM rTHKO mice. Kind of data set: OKT visual function with L-DOPA treatment in diabetic mice with loss of retinal DA (DM rTHKO). The class given is in vivo. The procedure: Because systemic injections of L-DOPA affect both brain and retinal dopaminergic systems, the role of retinal DA deficiency underlying visual deficits in early-stage DR was tested by assessing the effects of diabetes in mice with loss of retinal DA (rTHKO mice). It is hypothesized that reduced retinal DA content is a major contributing factor to the early visual deficits, so diabetes in rTHKO mice should not result in a further decline in their visual function.

For data set [2], the system named is retinal function of DM mice. The text has this:
Next, the postreceptoral function (i.e., b-wave) of these animals was examined.

Data set [3] deals with retinal function of DM mice. Nature of the data set: Light-adapted flicker ERG (cone pathway function). The following applies: 5-week time point.
Experimental: Because OKT responses were recorded under photopic conditions, isolated cone pathway function was examined by exposing light-adapted animals to flicker stimuli.
In a further data set the test system is retinal DA levels. Nature of the data set: Retinal dopamine content after daily intraperitoneal L-DOPA. Type of data set: in vivo, mice. The settings on record: daily intraperitoneal injections. The procedure: To validate that daily intraperitoneal injections of L-DOPA were able to increase retinal DA levels, retinal dopamine contents of the following four groups of animals were measured: CTRL WT+Veh, CTRL WT+L-DOPA, DM rTHKO+Veh, and DM rTHKO+L-DOPA. The retinal TH deficiency in the rTHKO mice greatly diminished DA levels compared with both CTRL groups (one-way ANOVA with ranks, H=12.092 with 3 degrees of freedom, p=0.007; Table 3).

The subject of data set [4] is Th, Drd1, Drd4 transcript levels. Nature of the data set: Real-time RT-PCR of retinal dopaminergic system-related genes. Type of data set: in vivo, mice. The text has this:
Note that the y-axis refers to averaged 2−ΔCt values, with ΔCt calculated by subtracting cycle threshold (Ct) of 18S from Ct of gene of interest (GOI). The asterisk indicates significant difference between the respective treatment group and the CTRL WT group.
The specificity of our Th primers was confirmed, because a >4-fold reduction in Th expression in rTHKO mice (Student's t values: DM rTHKO+Veh=5.964 and DM rTHKO+L-DOPA=5.928, p<0.01; FIG. 7, Table 4) regardless of L-DOPA treatment was found.
Whether diabetes affected transcript levels of DA receptors, specifically D1 receptor (Drd1) and D4 receptor (Drd4), which are selectively involved in spatial frequency threshold and contrast sensitivity was investigated. No significant changes were found in the transcript levels of Drd1 and Drd4 (FIG. 7, Table 4).

For another data set, the system named is 8-week DM WT mice. Kind of data set: OKT responses of 8-week DM WT mice after selective dopamine receptor agonists. Type of data set: in vivo. The settings on record: DM WT mice after 8 weeks of diabetes, agonist injection vs vehicle. The protocol:
After 8 weeks of diabetes, the animals were injected with vehicle, D1 receptor (D1R) agonist (SKF38393), and D4 receptor (D4R) agonist (PD168077).

On to `N[C@@H](Cc1ccc(O)c(O)c1)C(=O)O` [L-DOPA, (−)-L-α-amino-β-(3,4-dihydroxybenzene)propanoic acid], for which the contrast sensitivity change result in the data set on STZ-induced DM WT mice (DM WT and L-DOPA mice, 6 weeks after STZ) was “slight decrease”. Moreover, in the data set with STZ-induced DM WT mice (DM WT and L-DOPA mice, slower and less severe progression), the “onset of visual deficits (spatial frequency threshold)” value came out at 4 weeks after STZ. Besides, the “onset and progression of visual dysfunction” value with STZ-induced DM WT mice (DM WT mice, chronic L-DOPA treatment) is “significantly delayed”. The “reduction in spatial frequency threshold” value in the data set with STZ-induced DM WT mice (3 weeks after STZ, L-DOPA 10 mg/kg daily) amounted to 2.4%; in the data set with STZ-induced DM WT mice (6 weeks after STZ, L-DOPA 10 mg/kg daily) it was 7.2%. The “deficit in contrast sensitivity (reduction from CTRL animals)” value in the data set on STZ-induced DM WT mice (DM WT+L-DOPA group, 6 weeks after STZ, L-DOPA 10 mg/kg daily) is 18.0%. Further, in the data set with STZ-induced DM WT mice (non-diabetic CTRL mice treated with L-DOPA), the “spatial frequency threshold or contrast sensitivity in CTRL mice” value is “did not cause significant changes”. In addition, the “behavioral side effects such as dyskinesia” value in data set [1] is listed as “not observed”. Besides, the “contrast sensitivities vs DM rTHKO+Veh” value in the data set on DM rTHKO mice is reported as “significantly better”. The “visual functions of DM rTHKO mice” value in the data set with DM rTHKO mice (for the duration of the study) is reported as “significantly improved”. In the data set on DM rTHKO mice (throughout the study duration, p<0.001), the “spatial frequency thresholds vs DM rTHKO+Veh” value is “significantly higher”. The b-wave amplitude result in data set [2] (DM rTHKO mice (±L-DOPA) vs CTRL WT, dim and bright flash stimuli) is “significantly reduced responses”. Moreover, the b-wave implicit times result in data set [2] (DM rTHKO+L-DOPA, dim and bright stimuli) is reported as “strong, although not statistically significant, trend for improvement”. For the same compound, the “flicker ERG responses (amplitude and implicit time)” value in data set [3] (DM WT+L-DOPA, light-adapted, 6 Hz flicker) is “levels similar to those of CTRL animals; also recorded: restore ERG responses of DM WT mice to those of CTRL mice”. In addition, the “cone pathway functions (flicker responses)” value in data set [3] (DM rTHKO+L-DOPA vs CTRL levels) was “partially restore”. Besides, in the data set with retinal DA levels (CTRL WT+L-DOPA), the “DA levels of CTRL mice” value is on record as “did not significantly increase”. For the same compound, the “retina DA contents of rTHKO mice” value in the data set on retinal DA levels (DM rTHKO+L-DOPA) is recorded as “levels comparable to those of CTRL animals”. Also, the Drd4 transcript levels entry in data set [4] (DM WT+L-DOPA vs CTRL WT, p<0.05) is “significant downregulation; also recorded: downregulation of Drd4”. The Th transcript levels result in data set [4] (L-DOPA treatment, retina, RT-PCR) was “trend for Th downregulation”.
On to `Cc1cccc(C(=O)NCN2CCN(c3ccccc3C#N)CC2)c1` [PD168077], for which the contrast sensitivity entry in the data set on 8-week DM WT mice was “only improved contrast sensitivity”; in the data set with 8-week DM WT mice (listed as D4 agonist), “significantly enhanced”. The spatial frequency threshold entry in the data set with 8-week DM WT mice was “failed to improve”.
On to `Oc1cc2c(cc1O)C(c1ccccc1)CNCC2` (stereo not drawn) [SKF38393, 1-Phenyl-2,3,4,5-tetrahydro-(1H)-3-benzazepine-7,8-diol], for which the spatial frequency threshold entry with 8-week DM WT mice was “only improved spatial frequency threshold”; in the data set with 8-week DM WT mice (listed as D1 receptor agonist) it was “improved significantly”.
